The values below come from PMC6723352, “Exploring Structure-Activity Relationship in Tacrine-Squaramide Derivatives as Potent Cholinesterase Inhibitors” (Biomolecules, 2019).

One data set concerns the target hBChE (Homo sapiens, UniProt P06276). The data set is described as follows: Kinetic study of BChE inhibition. The class given is biochemical. As to the method: Kinetic study was performed in order to describe the interactions of the compounds 4b and 3e with hAChE and hBChE, respectively. Inhibition kinetics were elucidated from velocity curves that were measured at several concentrations of the corresponding substrate (AChE—acetylthiocholine, BChE—butyrylthiocholine) and tested compounds. The type of enzyme inhibition and corresponding kinetic parameters (Ki and Ki’) were determined by nonlinear regression analysis. Results for each type model of inhibition (competitive, non-competitive, uncompetitive and mixed) were compared by sum-of-squares F-test. […].
The kinetic study of AChE and BChE was performed by using the above-mentioned modified Ellman’s method. The values of Vmax and Km of the Michaelis-Menten kinetics as well as the values of Ki and Ki’ were calculated by nonlinear regression from the substrate velocity curves. Linear regression was used for calculation of Lineweaver-Burk plots. All calculations were performed using GraphPad Prism software version 6.07 for Windows (San Diego, CA, USA).

The text on data set [1]: An important feature for drugs targeting the brain is their ability to cross the BBB. The parallel artificial membrane permeability assay (PAMPA) is a high-throughput screening tool applicable for prediction of passive transport across BBB [57]. […] These include mainly (i) the different composition of the human phospholipid bilayer may cause deviation in predicted permeability, (ii) omitting the absorption of compounds that are actively transported by influx transporters and pumped-out by various efflux mechanisms with the glycoprotein P at the forefront or (iii) transport through the paracellular route which is mostly exploited by small […] molecules. Even considering these drawbacks, PAMPA-BBB is conceived as very simple but powerful tool for BBB prediction.
PAMPA (the parallel artificial membrane permeability assay) is a high-throughput screening tool applicable for prediction of the passive transport of potential drugs across the blood-brain barrier (BBB). In this study, it has been used as a non-cell-based in vitro assay carried out in a coated 96-well membrane filter. The filter membrane of the donor plate was coated with PBL (Polar Brain Lipid, Avanti, USA) in dodecane (4 µl of 20 mg/mL PBL in dodecane) and the acceptor well was filled with 300 µl of phosphate buffer saline, (PBS pH 7.4; VA). The tested compounds were dissolved first in DMSO and then diluted with PBS pH 7.4 to reach the final concentrations 50–500 µM in the donor well. […] In principle, test compound diffuse from the donor well through the polar brain lipid membrane (area = 0.28 cm^2) to the acceptor well. The concentration of the tested compound in both donor and the acceptor wells were assessed after 3, 4, 5 and 6 h of incubation in quadruplicate using the UV plate reader Synergy HT (Biotek, USA) at the maximum absorption wavelength of each compound (n = 3). Besides that, the solution of theoretical compound concentration, simulating the equilibrium state, established if the membrane was ideally permeable was prepared and assessed as well.

Data set [2] concerns the target human BChE (hBChE), human plasmatic butyrylcholinesterase (Homo sapiens, UniProt P06276). The data set is described as follows: hBChE inhibition, modified Ellman's method. The format is biochemical. As to the method:
Three series of tacrine-squaramide homodimers were tested for their inhibitory potential against human AChE (hAChE) and human BChE (hBChE) enzymes using modified spectrophotometric method of Ellman et al.. THA, 6-Cl-THA and 7-MEOTA were used as reference compounds.
(§1) Human plasmatic butyrylcholinesterase (BChE; EC 3.1.1.8) and recombinant acetylcholinesterase (AChE; 3.1.1.7) were prepared at the Department of Toxicology and Military Pharmacy. 5,5′-dithiobis(2-nitrobenzoic acid) (Ellman’s reagent, DTNB), phosphate buffer (PB, pH 7.4), acetylthiocholine (ATC) and butyrylthiocholine (BTC), were purchased from Sigma-Aldrich, Prague, Czech Republic. For measuring purposes – polystyrene Nunc 96-well microplates with flat bottom shape (ThermoFisher Scientific, USA) were utilized.
(§2) All the assays were carried out in 0.1 M KH2PO4/K2HPO4 buffer, pH 7.4. Enzyme solutions were prepared at 2.0 units/mL in 2 mL aliquots. The assay medium (100 µL) consisted of 40 µL of 0.1 M phosphate buffer (pH 7.4), 20 µL of 0.01 M DTNB, 10 µL of the enzyme, and 20 µL of 0.01 M substrate (ATC/BTC iodide solution).
(§3) Tested compounds were preincubated for 5 min. The reaction was started by immediate addition of 20 µL of the substrate. The activity was determined by measuring the increase in absorbance at 412 for AChE/BChE at 37 °C at 2 min intervals - using a Multi-mode microplate reader Synergy 2 (Winooski, VT, USA). Each concentration was assayed in triplicate. Software GraphPad Prizm 5 (San Diego, CA, USA) was used for the statistical data evaluation.
(In Ellman's method for cholinesterases, released thiocholine reacts with DTNB.)

The target of data set [3] is T1, human AChE (hAChE), recombinant acetylcholinesterase (Homo sapiens, UniProt P22303).
T1 construct: made in house
T1 sequence (P22303 32-614): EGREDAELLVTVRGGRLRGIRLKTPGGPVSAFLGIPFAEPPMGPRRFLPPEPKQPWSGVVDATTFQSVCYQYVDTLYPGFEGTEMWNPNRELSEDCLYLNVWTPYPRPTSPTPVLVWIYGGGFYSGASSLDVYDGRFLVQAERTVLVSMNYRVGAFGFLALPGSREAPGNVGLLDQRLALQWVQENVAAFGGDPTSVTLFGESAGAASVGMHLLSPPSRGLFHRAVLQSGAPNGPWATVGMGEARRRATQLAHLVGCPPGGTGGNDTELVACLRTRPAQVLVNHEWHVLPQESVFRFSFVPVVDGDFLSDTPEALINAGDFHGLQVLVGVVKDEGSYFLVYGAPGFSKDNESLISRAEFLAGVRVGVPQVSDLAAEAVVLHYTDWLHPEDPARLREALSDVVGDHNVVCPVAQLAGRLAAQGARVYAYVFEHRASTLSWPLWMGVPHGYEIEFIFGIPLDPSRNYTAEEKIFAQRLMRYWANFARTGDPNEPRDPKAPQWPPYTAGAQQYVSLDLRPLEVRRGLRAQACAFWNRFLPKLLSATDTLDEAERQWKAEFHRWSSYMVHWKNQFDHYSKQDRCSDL
The data set is described as follows: hAChE inhibition, modified Ellman's method. The format is biochemical. As to the method: Three series of tacrine-squaramide homodimers were tested for their inhibitory potential against human AChE (hAChE) and human BChE (hBChE) enzymes using modified spectrophotometric method of Ellman et al.. THA, 6-Cl-THA and 7-MEOTA were used as reference compounds. […].
as §1, §2, §3

A further data set can be described thus: in vitro. The settings on record: human. The procedure:
The human origin cell line HepG2 (ATCC, Mannassas, VA, USA) isolated from liver hepatocellular carcinoma was used to evaluate cytotoxicity of tested compounds. The cells were cultivated in Dublecco’s modified Eagle’s medium (DMEM; Biosera, Nuaille, France) supplemented with 10% fetal bovine serum (Biosera) and 1% penicillin-streptomycin antibiotic solution (Sigma-Aldrich, St. Louis, MO, USA), incubated at 37 °C in a CO2 incubator (Binder CO2 incubator BC 160, Tuttlingen, Germany) and routinely passaged by trypsinization at 75–85% confluence.
The final concentration of DMSO was less than 0.25% per well.
After 24-h incubation, the medium containing serially diluted substances was aspirated from each well and replaced by 100 µL of fresh medium containing MTT (0.5 mg/mL). Plates were subsequently incubated at 37 °C in CO2 incubator for 45 min. The medium containing MTT was then aspirated and formazan dissolved in 100 μL of DMSO. The optical density of each well was measured using Synergy 2 Multi-Mode Microplate Reader (BioTek Instruments, Inc., Winooski, VT, USA) at 570 nm. The cell viability was expressed as the percentage of untreated control. Each experiment was performed in triplicate and repeated three independent times.
The IC50 values were expressed as a mean ± standard error of the mean (SEM).

Sequence of hBChE (P06276 29-602): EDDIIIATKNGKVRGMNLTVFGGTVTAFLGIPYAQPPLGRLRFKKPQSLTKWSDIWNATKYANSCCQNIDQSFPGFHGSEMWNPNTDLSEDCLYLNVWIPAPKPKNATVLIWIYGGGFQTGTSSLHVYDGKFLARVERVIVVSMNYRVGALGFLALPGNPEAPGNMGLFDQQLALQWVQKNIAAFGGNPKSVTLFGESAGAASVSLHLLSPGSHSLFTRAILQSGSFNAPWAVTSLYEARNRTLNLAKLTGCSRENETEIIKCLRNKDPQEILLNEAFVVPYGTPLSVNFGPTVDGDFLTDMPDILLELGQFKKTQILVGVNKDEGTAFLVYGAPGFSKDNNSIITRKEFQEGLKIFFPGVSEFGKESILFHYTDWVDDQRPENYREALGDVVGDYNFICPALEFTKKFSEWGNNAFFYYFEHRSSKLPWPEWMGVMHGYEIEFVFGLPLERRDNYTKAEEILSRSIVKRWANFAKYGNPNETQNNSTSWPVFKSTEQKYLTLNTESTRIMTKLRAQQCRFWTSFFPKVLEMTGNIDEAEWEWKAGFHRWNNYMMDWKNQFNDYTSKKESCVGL
Sequence of human BChE (hBChE), human plasmatic butyrylcholinesterase (P06276 29-602): as above

Regarding `O=c1c(NCCCCCCNc2c3c(nc4ccccc24)CCCC3)c(NCCCCCCNc2c3c(nc4ccccc24)CCCC3)c1=O` [Compound 3e, Bis({6-[(1,2,3,4-tetrahydroacridin-9-yl)amino]hexyl}amino)cyclobut-3-ene-1,2-dione], the “Ki'” value at hBChE (binding to enzyme-substrate complex, substrate butyrylthiocholine) came out at 100 ± 28 nM. The compound also had an inhibitory constant (Ki) at hBChE (binding to free enzyme, substrate butyrylthiocholine) of 8.1 ± 1.9 nM. Besides, the type of inhibition entry at hBChE (nonlinear regression, sum-of-squares F-test, p < 0.05) is listed as “mixed type of inhibition”. Further, the Pe in data set [1] (PAMPA, PBS pH 7.4) is 2.6 ×10⁻⁶ cm/s. The “BBB permeation prediction in words” value in data set [1] (PAMPA-BBB) is “uncertain BBB permeation”. Further, the “CNS (+/−) predicted BBB permeation” value in data set [1] (class from Pe) is listed as “CNS +/− (CNS +/−: BBB permeation uncertain with Pe (10^−6 cm·s^−1) from 4.0 to 2.0)”. In addition, the IC50 was 21 nM in data set [2] and 13 nM in data set [3]. Moreover, in data set [3] (ratio IC50(hBChE)/IC50(hAChE)), the “SI (selectivity index for hAChE)” value stood at 1.6. Also, in the data set “in vitro”, the IC50 at 24 h came out at 76000 nM.

What is called Ki is the dissociation constant of the complex between target and ligand, obtained from inhibition or displacement. Broadly, the IC50 is the point on the concentration scale where inhibition reaches its midpoint.
